Source: US20190125727A1, “FIXED DOSE COMBINATION FOR PAIN RELIEF WITHOUT EDEMA” (Marina Biotech, Inc., priority 2014, published 2019)
Several values for one entry are separate records, joined by “and”; a condition that tells them apart may be missing. Equal values may be shown once. Each block holds one molecule with its values, some of them ahead of it.

Columns and labels:
[1] = Table 1 of CELEBREX Package Insert; cited from earlier work
[2] = Incidence of edema in SYMPHONY claims / ACC registry database; type: in vivo, human
From the text: To support this study a database was created which contains: 1) Claims data from SYMPHONY DATABASE® pertaining to anti-hypertensives, Statins, COX-2's, and NSAIDS. The data span the most recent 36 months and 2) registry data from the ACC reporting Blood Pressure (systolic/diastolic), peripheral edema flags (yes, no, missing), Heart rate, LDL, Glucose Level, Ejection fraction, GFR, Height, Weight, BJVII, and the like.
SYMPHONY DATABASE® contains true patient level data—All Data Sources be it RX or JVIX claims is tied back to individual patients which is tracked and then encrypted based on first name, last name, gender, DOB and zip code to give an accurate picture of patient level informatics year over year regardless of insurance changes.
The properties for the SYMPHONY DATABASE® are: 1) Takes CELEBREX® antihypertensive, AH, Statin or NSAID or have OA, RA or some other form of arthritis, 36 months, 2) Time Frame=Jan. 1, 2012-Dec. 31, 2014 (3 years), 3) Number of files=201, 4) Size=561 GB zipped (−2.5 TB), 5) Unique Patients=162 million, 6) Patients on CELEBREX®=4.3 million, 7) Patients that have OA=16.3 million (15.4 million only OA), 8) Patients that have RA=2.3 million (1.4 million only RA).
The properties of the ACC registry are: 1) Have 3+BP readings, 2) Time Frame=Jan. 1, 2012-Dec. 31, 2014 (3 years), 3) Number of files=2, 4) Size=590 MB, 51 MB, 5) Unique Patients=1.58 million, 6) Patients with BP readings=1.58 million, 7) Patients with Edema Flag True=870 K.
The edema rate was then measured in the aforementioned database. The incidence of edema was higher for OA patients than RA, other Arthritis, or Arthritis free patients. […] Overall OA seems to be susceptible to CELEBREX® induced edema. The results confirmed the meta-analysis shown above. […]

[3] = Moore et al., cited from earlier work
clinical = details: human, in vivo, oral, 200 mg
[4] = Celecoxib AUC from combined published pharmacokinetic data
[5] = Applicant's meta-analysis of reported edema rates in osteoarthritic populations by celecoxib dose; details: 400 mg/day
[6] = no arthritis patients with CELEBREX
[7] = other arthritis patients with CELEBREX

Compound: O=C(O)Cc1ccccc1Nc1c(Cl)cccc1Cl [diclofenac]
patients treated that develop edema [1]: 1.0%

AUC (clinical): 6440 ng·h/mL
AUC Max. ([4]; 100 mg): 3418 ng·h/mL
AUC Med. ([4]; 100 mg): 3395 ng·h/mL
AUC Min. ([4]; 100 mg): 2465 ng·h/mL
AUC Max. ([4]; 200 mg): 6791 ng·h/mL
AUC Min. ([4]; 200 mg): 5972 ng·h/mL
edema event rate (upper limit and average) versus 100 or 200 mg/day dose [5]: more than twice as high
Compound: Cc1ccc(-c2cc(C(F)(F)F)nn2-c2ccc(S(N)(=O)=O)cc2)cc1 [celecoxib]
incidence of edema ([2]; Days of Therapy 60-120): (18.1%)
incidence of edema ([2]; Days of Therapy 120-180): (19.3%)
incidence of edema ([2]; Days of Therapy 180-240): (21.6%)
incidence of edema ([2]; Days of Therapy <60): (19.4%)
incidence of edema ([2]; Days of Therapy >240): (26.7%)
cases of edema (%), OA ([2]; OA patients with CELEBREX): (6.0%)
cases of edema, OA ([2]; OA patients with CELEBREX): 254
cases of edema (%), RA ([2]; RA patients with CELEBREX): (3.3%)
cases of edema, RA ([2]; RA patients with CELEBREX): 82
cases of edema (%), No Arthritis [2, 6]: (0.4%)
cases of edema, No Arthritis [2, 6]: 451
cases of edema (%), Other Arthritis [2, 7]: (4.1%)
cases of edema, Other Arthritis [2, 7]: 1702
incidence of edema at any site, usual ([3]; clinical trials of celecoxib): about 3%
incidence of edema in two trials ([3]; two trials): 23% and 38%
patients treated that develop edema [1]: 2.1%

Compound: COc1ccc2cc([C@H](C)C(=O)O)ccc2c1 [naproxen]
patients treated that develop edema [1]: 2.1%

Compound: CC(C)Cc1ccc(C(C)C(=O)O)cc1 (centres unmarked) [ibuprofen]
patients treated that develop edema [1]: 3.5%
